Measurements published in patent publication US8686016B2, “Schweinfurthins and uses thereof” (The United States of America, as represented by the …, priority 2009, dated 2014).
“Also recorded” adds a separate entry of the source.

How the values were obtained:
MPNST K16561 cells = test: XTT cell proliferation assay, K16561; type: cell-based, mouse
Description: Establishment of NPcis MPNST cell lines: Mice were euthanized by CO2 asphyxiation and tumors were dissected. The tumor volume was measured. The tumor was then cut in half, and ½ fixed in 4% PFA. The other half was rinsed, then cut into 24 pieces of approximately equal size. Each piece was diced with a razor blade and placed in 1 well of a 24 well plate, along with 625 μL of Triple Express (Gibco, Grand Island, N.Y., USA) and 5 μL of recombinant DNAse (Roche, Indianapolis, Ind., USA). Tumors were triturated, then incubated at 37° C. in a 5% CO2 incubator for 2-5 hours, with an additional trituration halfway through incubation time. At the end of the incubation, tumor pieces were triturated again, and suspended cells were transferred to 1.5 mL eppendorf tubes. […] Both plates were monitored for cell growth, grown up to 10 cm plates, and frozen down in 10% DMSO. […]
XTT Cell Proliferation Assay: Cells were seeded into 96-well plates at a density of 2,000 cells/well and allowed to reattach overnight. Cells were treated with SA, synthetic analogs, camptothecin (NCI Chemotherapeutics Repository, Md., USA), or DMSO control at the indicated concentrations continuously for 48 hours followed by assay in the 96-well plate for relative viable cell number using the dye […] (XTT) and a Wallac-Victor 2 plate reader (Perkin-Elmer, Waltham, Mass., USA). […]

KR158 cells = test: MultiTox-Fluor Multiplex Cytotoxicity Assay; type: cell-based, mouse; conditions: 48 hrs continuous treatment
Description: Cytotoxicity Assay: The MultiTox-Fluor Multiplex Cytotoxicity Assay (Promega, Madison, Wis., USA) was used according to manufacturer instructions. Briefly, KR158 cells were harvested and seeded 2,500 cells/well in a black walled 96-well plate (Corning, Lowell, Mass., USA). Cells were treated with SA or DMSO control at the indicated concentrations continuously for 48 hours followed by addition of the fluorescent substrates from the assay kit. The GF-AFC Substrate enters live cells where it is cleaved by the live-cell protease to release AFC. The bis-AAF-R110 substrate cannot enter live cells but instead is be cleaved by the dead-cell protease activity to release R110.

`CC(C)=CCC/C(C)=C/Cc1c(O)cc(/C=C/c2cc(O)c3c(c2)C[C@@H]2C(C)(C)[C@H](O)[C@H](O)C[C@@]2(C)O3)cc1O` [SA, Schweinfurthin A] was tested, and the “inhibition of proliferation (percent viability versus control)” value (MPNST K16561 cells) was “dose dependent inhibition of proliferation; also recorded: sensitive” and the “cell killing (dead-cell protease activity)” value (KR158 cells) was “dose dependent increase of dead-cell protease activity; also recorded: dose dependent increase in cell killing”.
